Reference: US10344002B2, “Compositions and methods for treating metabolic disorders” (NuSirt Sciences, Inc., priority 2016, dated 2019)

How the values were obtained:
Type in all cases: cell-based
AMPK [1] = test: Western blot, phosphorylated/total AMPK in 3T3L1 adipocytes; conditions: 48 hours; for ratio of phosphorylated/total AMPK (FIG. 5): control approximately 1.52
Description: 3T3L1 adipocytes were seeded with 200,000 cells per well on 6-well tissue culture plates in Dulbecco's modified eagle's medium (DMEM) containing 10% fetal bovine serum (FBS) and antibiotics (1% penicillin-streptomycin) at 37° C. in 5% CO2. After reaching confluency (3 days), cells were induced to differentiate with a standard differentiation media (DM2-L1, Zen-Bio Inc., NC) for 3 days, then cells were maintained in DMEM (10% FBS, 1% penicillin-streptomycin) for another 11 days to induce lipid accumulation. Cells were then treated with indicated concentration of Compound 2 for 48 hours.
(§1) Compound 2 was dissolved in 100% DMSO to a stock concentration of 100 mM. This stock was further diluted to indicated concentrations in DMEM media.
(§2) Western blots: Phospho-AMPK, AMPK, Phospho-ACC, ACC antibodies were obtained from Cell Signaling (Danvers, Mass.). Sir2 antibody was obtained from MyBiosource (San Diego, Calif.). Protein levels of cell extracts were measured by BCA kit (Thermo Scientific, Pittsburgh, Pa.). For Western blot, 10-50 μg protein was resolved on 4-15% gradient polyacrylaminde gels (Criterion precast gel, Bio-Rad Laboratories, Hercules, Calif.), transferred to either PVDF or nitrocellulose membranes, incubated in blocking buffer (3% BSA or 5% non-fat dry milk in TBS) and then incubated with primary antibody (1:1000 dilution), washed and incubated with horseradish peroxidase- or fluorescence-conjugated secondary antibody (1:10000 dilution). Visualization was conducted using BioRad ChemiDoc instrumentation and software (Bio-Rad Laboratories, Hercules, Calif.) and band intensity was assessed using Image Lab 4.0 with correction for background and loading controls.

adiponectin = test: Adiponectin gene expression (real-time PCR) in 3T3L1 adipocytes; conditions: for adiponectin expression, fold change to control (FIG. 8): 48 hours
Description: Cell Culture: 3T3L1 adipocytes were seeded with 20,000 cells per well on 96-well tissue culture plates in DMEM containing 10% FBS and 1% penicillin-streptomycin. After reaching confluency (3 days), cells were induced to differentiate with a standard differentiation media (DM2-L1, Zen-Bio Inc., NC) for 3 days, then cells were maintained in DMEM (10% FBS, 1% penicillin-streptomycin) for another 8 days to induce lipid accumulation. Cells were then treated with indicated concentration of Compound 2 for 48 hours.
as §1
Gene Expression: 3T3L1 adipocytes were grown and treated as described above. The medium was removed and the cells were washed with cold PBS. Cells Lysis, reverse transcription and real-time PCR was performed according to the instructions of the TaqMan® Gene Expression Cells-to-CT™ Kit manual (Life Technologies Inc, Cat #4399002). cDNA was probed with adiponectin and normalized to 18S.

[2] = tested on: acetyl-CoA carboxylase (ACC); test: Western blot, phosphorylated/total acetyl-CoA carboxylase in C2C12 muscle cells; conditions: for increase in the ratio of phosphorylated to total ACC: 24 h; for ratio of phosphorylated/total ACC (FIG. 6B): 24 hours, control approximately 1.25
Description: (§3) Cell Culture: C2C12 muscle cells were seeded with 400,000 cells per well on 6-well tissue culture plates in Dulbecco's modified eagle's medium (DMEM) containing 10% fetal bovine serum (FBS) and antibiotics (1% penicillin-streptomycin) at 37° C. in 5% CO2. After reaching confluency (24 hours), cells were induced to differentiate with DMEM containing 2% Horse Serum for 5 to 6 days until myotubes were fully formed. Cells were then treated with indicated concentration of Compound 2 for 4 and 24 hours.
as §1, §2

AMPK [3] = test: Western blot, P-AMPK/AMPK in C2C12 muscle cells; conditions: 4 hours; for ratio of P-AMPK/AMPK (FIG. 6A): control approximately 0.75
Description: as §3, §1, §2

C2C12 muscle cells = test: Fatty acid oxidation (oxygen consumption rate, Seahorse XF-24) in C2C12 muscle cells; conditions: C2C12 muscle cells
Description: as §3, with “with 40,000” for “with 400,000”, “on Seahorse” for “on 6-well”, “for 3” for “for 5”, “to 4” for “to 6”, “for” for “for 4 and”
as §1
Fatty acid oxidation: Baseline and palmitate-stimulated oxygen consumption rates were measured with XF-24 analyzer (Seahorse Bioscience (now part of Agilent Technologies), MA, USA). After 24 hour treatment with Compound 2 of differentiated C2C12 muscle cells, cells were washed twice with non-buffered carbonate-free pH 7.4 low glucose (2.5 mM) DMEM containing carnitine (0.5 mM), equilibrated with 600 μl of the same media in a non-CO2 incubator for 45 minutes, and then inserted into the instrument for 15 minutes of further equilibration, followed by O2 consumption measurement. Three successive baseline measures at five-minute intervals were taken prior to injection of palmitate (200 μM final concentration). Sets of three five-minute intervals followed by 10-minute time delay were continued over a 2 to 3 hour period after palmitate injection. The area under the curve of 02 consumption change from baseline for each sample was then calculated and used for subsequent analysis. Data are represented as mean±SD for each treatment group.

Structure (SMILES): CC(C)C[C@@H]1NC(N=C(N)N)=NC1=O [Compound 2]
- ratio of phosphorylated/total AMPK (FIG. 5) (AMPK [1]; 10 nM): approximately 1.5
- ratio of phosphorylated/total AMPK (FIG. 5) (AMPK [1]; 100 nM): approximately 2.0
- increase in the ratio of phosphorylated to total AMPK protein expression (AMPK [1]; 100 nM, p=0.0004): 35%
- increase of adiponectin gene expression (adiponectin; 10 nM and 100 nM, 48 hour treatment): approximately 35%
- adiponectin expression, fold change to control (FIG. 8) (adiponectin; 10 nM): approximately 1.35 fold change
- adiponectin expression, fold change to control (FIG. 8) (adiponectin; 100 nM): approximately 1.4 fold change
- increase in the ratio of phosphorylated to total ACC ([2]; 10 nM): 46%
- ratio of phosphorylated/total ACC (FIG. 6B) ([2]; 10 nM): approximately 1.8
- increase in the ratio of phosphorylated to total ACC ([2]; 100 nM): 21%
- ratio of phosphorylated/total ACC (FIG. 6B) ([2]; 100 nM): approximately 1.52
- effect on the ratio of P-AMPK/AMPK (AMPK [3]; 10 nM): no effect
- ratio of P-AMPK/AMPK (FIG. 6A) (AMPK [3]; 10 nM): approximately 0.65
- ratio of P-AMPK/AMPK (FIG. 6A) (AMPK [3]; 100 nM): approximately 1.35
- increase in the ratio of P-AMPK/AMPK (AMPK [3]; 100 nM, p=0.03): 78%
- increase of the baseline oxygen consumption rate (area under the curve) (C2C12 muscle cells; 10 nM, 24 hour treatment, prior to palmitate injection, p=0.002): 60%
- further increase of palmitate-induced oxygen consumption vs control (C2C12 muscle cells; after palmitate injection (200 μM), p=0.002): ~75%
- effect on baseline and palmitate-stimulated oxygen consumption rate (OCR) (C2C12 muscle cells; concentrations in excess of luM (not shown)): no effect
- dose-response of OCR effects (area under the curve) (C2C12 muscle cells; dose-responsive only at 0-10 nM): plateaued between 10 and 100 nM
- dose-response on baseline and palmitate-stimulated OCR (C2C12 muscle cells; higher concentrations (>100 nM)): diminishing responses
